The values below come from patent publication US20230002389A1, “ADENINE ANALOGS, PRODRUGS, DERIVATIVES, COMPOSITIONS AND USES THEREOF” (priority 2021, published 2023).

A short description of data set [1]: Pharmacokinetic analysis of T1-1 as a prodrug of MRS5474: plasma PK in mice after i.v. and p.o. dosing. More on the design: AUClast/D: unit not given here. Format: in vivo, Male CD-1 mice. To be noted: CD-1 mice; for MRT inf: read-out: MRTInf_obs. Here is the method:
Pharmacokinetic Analysis of Compound T1-1 for Determination Utility as a Prodrug of MRS5474:
The dosing formulation (for i.v.) of T1-1 for mouse PK studies were prepared as 0.27 mg/mL solution of 10% DMSO+50% PEG400+40% WATER (Dissolved 1.19 mg of T1-1 in 0.441 mL of DMSO with vortexing and sonication, then added 2.204 mL of PEG400 and 1.763 mL of H2O with vortexing to obtain a solution). The dosing formulation (for p.o.) of T1-1 for mouse PK studies were prepared 2.71 mg/mL solution of 10% DMSO+50% PEG400+40% WATER (Dissolved 10.17 mg of in 0.375 mL of DMSO with vortexing and sonication, then added 1.876 mL […] of PEG400 and 1.501 mL of H2O with vortexing to obtain a solution.)
Animals: Male CD-1 mice (6-8 weeks of age), weighing 20-22 g; all animals were allowed to acclimate to this environment for one week prior to experimental manipulations.
Study Design: Study design The CD1 mice were given a single dose of T1-1 by bodyweight via intravenous (i.v.), or via oral gavage (p.o) administration. The blood and brain tissue samples were collected at intervals (h) of 0, 0.5, 1, 2, 4, 8, and 24. (n=3, each time point).
Plasma Sample Preparation: Approximately 0.3 mL blood will be collected at each time point. After collecting the blood at each time point, add 250 to 300 μL of the blood sample to Eppendorf tube containing EDTA solution+10 μL of inhibitor stock and vortexed for 15 minutes and then centrifugation at 4000 g for 5 minutes in a 4° C. centrifuge to obtain plasma.
The desired serial concentrations of working solutions were achieved by diluting a stock solution of the analyte with 50% acetonitiile in water solution. 5 μL of working solutions (5, 10, 20, 50, 100, 500, 1000, 5000, 10000 ng/mL) were added to 50 μL of the blank CD1 Mouse plasma to achieve calibration standards of 0.5-1000 ng/mL (0.5, 1, 2, 5, 10, 50, 100, 500, 1000 ng/mL) in a total volume of 55 μL. Five quality control samples at 1 ng/mL, 2 ng/mL, 5 ng/mL, 50 ng/mL, and 800 ng/mL for plasma were prepared independently of those used for the calibration curves. These QC samples were prepared on the day of analysis in the same way as calibration standards. 55 μL standards, 55 μL QC samples and 55 unknown samples (50 μL plasma with 5 μL blank solution) were added to 200 μL of acetonitrile containing IS mixture for precipitating protein respectively. Then the samples were vortexed for 30 s. After centrifugation at 4 degree Celsius, 3900 rpm for 15 min, the supernatant was diluted 3 times with water. 1 μL of diluted supernatant was injected into the LC/MS/MS system for quantitative analysis using (Shimadzu-DGU-20A5 integrated with AB AP15500 LCMS/MS instrument) with to determine plasma concentrations of T1-1 and the metabolite (parent compound) MRA5474. The data were analyzed for test article T1-1 and the metabolite (parent compound) MRA5474 for PK profile.
The mobile phase consisted of acetonitrile and water mixtures, solution A: 5% acetonitrile (0.1% formic acid) and solution B: 95% acetonitrile (0.1% formic acid) with gradient elution from 90 to 10% solution A over 1.71 min. The flow rate was 0.7 mL/min. YMC Triart C18 5 μm (50×2.1 mm) column was used for the separation of the sample components.
Results: Summary of IV and PO of Plasma Pharmacokinetic Parameters

In another data set the test system is Homer 1a. Kind of data set: Quantitative real-time PCR analysis of brain tissue after oral gavage of T1-1. Format: in vivo, Male CD1 mice. To be noted: PO(2 h); for % Vehicle Mean: group mean of 3 mice; for % Vehicle Average / % Vehicle n = 1 / % Vehicle n = 2 / Relative mRNA expression (2^(−ΔCt)) Average / Relative mRNA expression(2^(−ΔCt)) n = 1 / Relative mRNA expression(2^(−ΔCt)) n = 2: individual mice M31-M33. Here is the method: Quantitative Real-Time PCR Analysis
Male CD1 mice were administered vehicle and test compound (T1-1) by oral gavage. After 2 hours, the were decapitated, and their brain samples were collected. Total RNA from the brain tissue were isolated using […], RNA integrity was confirmed, and the concentration was quantified by measuring the optical density. Reverse transcription was performed (Invitrogen) for cDNA synthesis according to the manufacturer's instructions. Real-time qPCR was performed on Real-Time PCR System using SYBR Green. The amplification reactions were performed as per the supplier's protocol.

The mark [2] stands for this setting: IV(plasma), T1-1 dosed 1.35 mg/kg.
The mark [3] stands for this setting: IV(plasma), T1-1 dosed 1.35 mg/kg, analyte = label.
[4] abbreviates: PO(plasma), T1-1 dosed 13.55 mg/kg.
[5] abbreviates: male, mouse, IV(plasma), T1-1 dosed 1.35 mg/kg, analyte = label.
The mark [6] stands for this setting: male, mouse, IV(plasma), T1-1 dosed 1.35 mg/kg, analyte = label (T1-1 or metabolite MRS5474).
Where [7] appears, read: male, mouse, PO(plasma), T1-1 dosed 13.55 mg/kg, analyte = label.

Each structure is given as a SMILES string. “And” between values parts separate entries of the source, which are not always exact repeats. Equal values may be shown once. Read-outs that look alike come from different tables or passages of the source.

In general, AUC(0-inf) refers to total exposure, with the tail of the curve extrapolated. One may read the AUC(0-t) as the area under the concentration-time curve up to a stated or last time point. By half-life is commonly meant the time needed for the level to fall by half in the phase considered. One may read the Cmax as the peak of the concentration-time curve. What is called Tmax is the time at which the peak concentration occurs. For the compound `O=C(NCN(c1nc(Cl)nc2c1ncn2[C@H]1[C@H](O)[C@H](O)[C@@H]2C[C@@H]21)C(C1CC1)C1CC1)c1ccccc1` [Compound T1-1, N-(((2-chloro-9-((1S,2R,3S,4R,5R)-3,4-dihydroxybicyclo [3.1.0]hexan-2-yl)-9H-purin-6-yl) (dicyclopropylmethyl)amino)methyl) benzamide], in data set [1] (setting [2]), the AUClast/D is 289.77 and the Vss_obs is recorded as 1.57 L/kg. Besides, in data set [1] (setting [3]), the “AUC_% Extrap_obs” value was found to be 0.93% and the Cl_obs was determined as 56.98 mL/min/kg. In data set [1] (setting [4]), the AUClast/D is 34.47 and the F was 11.90%. In addition, in data set [1] (setting [5]), the AUC(0-inf) came out at 395 ng·h/mL, the AUC(0-t) was determined as 391 ng·h/mL, the C0 is 613 ng/mL and the MRT inf was 0.46 h. Besides, the half-life in data set [1] (setting [6]) is 17.4 min. Also, in data set [1] (setting [7]), the AUC(0-t) was determined as 467 ng·h/mL, the Cmax is 132 ng/mL and the Tmax worked out at 0.5 h. Moreover, in the data set with Homer 1a (Homer 1a mRNA vs Actin), the “% Vehicle Mean” value stood at 112.74%; the “% Vehicle Average” value is 131.98% and 104.88% and 101.37%; the “% Vehicle n = 1” value is 123.98% and 96.37% and 100.64%; the “% Vehicle n = 2” value was 139.98% and 113.39% and 102.10%. Also, in the data set with Homer 1a (Homer 1a mRNA vs GAPDH), the “% Vehicle Mean” value was 66.54%; the “% Vehicle Average” value was 75.27% and 51.17% and 73.18%; the “% Vehicle n = 1” value was 72.27% and 49.10% and 72.10%; the “% Vehicle n = 2” value is 78.27% and 53.24% and 74.26%. Further, in the data set on Homer 1a (Homer 1a vs Actin), the “Relative mRNA expression (2^(−ΔCt)) Average” value is 0.51 and 0.41 and 0.40; the “Relative mRNA expression(2^(−ΔCt)) n = 1” value is 0.48 and 0.38 and 0.39; the “Relative mRNA expression(2^(−ΔCt)) n = 2” value was 0.55 and 0.44 and 0.40. In the data set on Homer 1a (Homer 1a vs GAPDH), the “Relative mRNA expression (2^(−ΔCt)) Average” value was 0.1187 and 0.0807 and 0.1154; the “Relative mRNA expression(2^(−ΔCt)) n = 1” value was 0.1140 and 0.0774 and 0.1137; the “Relative mRNA expression(2^(−ΔCt)) n = 2” value was 0.1234 and 0.0840 and 0.1171.
As to `O[C@@H]1[C@H](O)[C@@H]2C[C@@H]2[C@H]1n1cnc2c(NC(C3CC3)C3CC3)nc(Cl)nc21` [MRS5474, (1R,2R,3S,4R,5S)-4-(2-chloro-6-((dicyclopropylmethyl)amino)-9H-purin-9-yl) bicyclo [3.1.0] hexane-2,3-diol, reference compound], the “AUC_% Extrap_obs” value in data set [1] (setting [3]) is 2.62%. Further, the “AUC_% Extrap_obs” value in data set [1] (PO(plasma), T1-1 dosed 13.55 mg/kg, analyte = label) amounted to 0.08%. Also, in data set [1] (setting [5]), the AUC(0-inf) was 321 ng·h/mL, the AUC(0-t) turned out to be 313 ng·h/mL, the Cmax worked out at 127 ng/mL and the Tmax was found to be 1 h. For the same compound, the MRT inf in data set [1] (setting [5]) amounted to 2.32 h. The half-life in data set [1] (setting [6]) was 93 min. In addition, in data set [1] (setting [7]), the AUC(0-inf) is 6990 ng·h/mL, the AUC(0-t) stood at 6990 ng·h/mL, the Cmax was found to be 522 ng/mL and the Tmax came out at 1 h. Moreover, in data set [1] (setting [7]), the half-life was 139 min and the MRT inf was determined as 6.36 h.
